Source: patent US20220218852A1, “NOVEL RADIOLABELLED CXCR4-TARGETING COMPOUNDS FOR DIAGNOSIS AND THERAPY” (PROVINCIAL HEALTH SERVICES AUTHORITY, priority 2019, published 2022)
Read-outs that look alike come from different tables or passages of the source. Positions of bridges follow the written chain, without caps; N, C: chain ends. Non-standard residues stand in square brackets, D forms with d. Residues, ends and D or L forms follow the SMILES beside them. Groups on a side chain read outwards from the residue. *: point of attachment. DOTA = O=C(O)CN1CCN(CC(=O)O)CCN(CC(=O)*)CCN(CC(=O)O)CC1; 2Nal = N[C@@H](Cc1ccc2ccccc2c1)C(=O)O; Lys(iPr) = CC(C)NCCCC[C@H](N)C(=O)O

Key:
Assay type in all cases: in vivo
[1] = Biodistribution in Jeko1 tumor-bearing mice; settings: male, NOD.Cg-Rag1^tm1MomII2rg^tm1Wjl/SzJ (NRG), mouse, iv, total radioactivity
Protocol: (§1) For Daudi, Z138, GRANTA519 and Jeko1 xenografts, male NOD.Cg-Rag1^tm1MomII2rg^tm1Wjl/SzJ (NRG) mice were subcutaneously inoculated on the left flank with 5×10^6 cells (100 μL; 1:1 ratio of PBS/Matrigel) and tumors were grown to a size of 200-500 mm^3. For PC-3 xenografts, male NOD.Cg-Rag1^tm1MomII2rg^tm1Wjl/SzJ (NRG) mice were subcutaneously inoculated on the left flank with 5×10^6 PC-3 cells (100 μL; 1:1 ratio of PBS/Matrigel) and tumors were grown to a size of 200-400 mm^3.
(§2) The mice were euthanized via CO2 inhalation while anesthetized with isoflurane. Tissues were harvested, washed in PBS, blotted dry, weighed, and measured on a Hidex AMG Automatic Gamma Counter.

[2] = system: Jeko1 mantle cell lymphoma xenografts; assay: Biodistribution in Jeko1 tumor-bearing mice
Protocol: as §1, §2

[3] = Biodistribution in PC3 tumor-bearing mice; settings: male, NOD.Cg-Rag1^tm1MomII2rg^tm1Wjl/SzJ (NRG), mouse, iv, total radioactivity
Protocol: as §1, §2

[4] = adrenals, 1 h, read-out: Biodistribution Adrenals
[5] = adrenals, 1 h blocked (7.5 μg LY2510924 i.p.), read-out: Biodistribution Adrenals
[6] = bone, 1 h, read-out: Biodistribution Bone
[7] = bone, 1 h blocked (7.5 μg LY2510924 i.p.), read-out: Biodistribution Bone
[8] = brain, 1 h, read-out: Biodistribution Brain
[9] = brain, 1 h blocked (7.5 μg LY2510924 i.p.), read-out: Biodistribution Brain
[10] = fat, 1 h, read-out: Biodistribution Fat
[11] = fat, 1 h blocked (7.5 μg LY2510924 i.p.), read-out: Biodistribution Fat
[12] = heart, 1 h, read-out: Biodistribution Heart
[13] = heart, 1 h blocked (7.5 μg LY2510924 i.p.), read-out: Biodistribution Heart
[14] = intestine, 1 h, read-out: Biodistribution Intestine
[15] = intestine, 1 h blocked (7.5 μg LY2510924 i.p.), read-out: Biodistribution Intestine
[16] = kidney, 1 h, read-out: Biodistribution Kidney
[17] = kidney, 1 h blocked (7.5 μg LY2510924 i.p.), read-out: Biodistribution Kidney
[18] = liver, 1 h, read-out: Biodistribution Liver
[19] = liver, 1 h blocked (7.5 μg LY2510924 i.p.), read-out: Biodistribution Liver
[20] = lung, 1 h, read-out: Biodistribution Lung
[21] = lung, 1 h blocked (7.5 μg LY2510924 i.p.), read-out: Biodistribution Lung
[22] = muscle, 1 h, read-out: Biodistribution Muscle
[23] = muscle, 1 h blocked (7.5 μg LY2510924 i.p.), read-out: Biodistribution Muscle
[24] = pancreas, 1 h, read-out: Biodistribution Pancreas
[25] = pancreas, 1 h blocked (7.5 μg LY2510924 i.p.), read-out: Biodistribution Pancreas
[26] = spleen, 1 h, read-out: Biodistribution Spleen
[27] = spleen, 1 h blocked (7.5 μg LY2510924 i.p.), read-out: Biodistribution Spleen
[28] = stomach, 1 h, read-out: Biodistribution Stomach
[29] = stomach, 1 h blocked (7.5 μg LY2510924 i.p.), read-out: Biodistribution Stomach
[30] = testes, 1 h, read-out: Biodistribution Testes
[31] = testes, 1 h blocked (7.5 μg LY2510924 i.p.), read-out: Biodistribution Testes
[32] = 1 h blocked (7.5 μg LY2510924 i.p.)

CC(C)NCCCC[C@@H]1NC(=O)[C@H](Cc2ccc(O)cc2)NC(=O)[C@H](Cc2ccccc2)NC(=O)CC[C@H](C(=O)N[C@@H](CCCCNC(C)C)C(=O)N[C@@H](CCCCNC(=O)[C@H](CCC(=O)O)NC(=O)[C@H](CCC(=O)O)NC(=O)[C@H](CCC(=O)O)NC(=O)CN2CCN(CC(=O)O)CCN(CC(=O)O)CCN(CC(=O)O)CC2)C(N)=O)NC(=O)CNC(=O)[C@H](Cc2ccc3ccccc3c2)NC(=O)[C@@H](CCCNC(=N)N)NC1=O [[^68Ga]Ga-BL02, metal not drawn] (FY[Lys(iPr)][dR][2Nal]G[dE][Lys(iPr)]K([Glu-Glu-Glu-DOTA])-NH2; lactam N-7)
tissue uptake at 1 h ([1]; Jeko1 tumor, 1 h, read-out: Biodistribution Jeko1 (tumor)): 11.4 %ID/g
tissue uptake at 1 h ([1]; Jeko1 tumor, 1 h blocked (7.5 μg LY2510924 i.p.), read-out: Biodistribution Jeko1 (tumor)): 1.32 %ID/g
tissue uptake at 1 h [1, 4]: 0.23 %ID/g
tissue uptake at 1 h [1, 5]: 0.47 %ID/g
tissue uptake at 1 h [1, 6]: 0.47 %ID/g
tissue uptake at 1 h [1, 7]: 0.18 %ID/g
tissue uptake at 1 h [1, 8]: 0.02 %ID/g
tissue uptake at 1 h [1, 9]: 0.03 %ID/g
tissue uptake at 1 h [1, 10]: 0.05 %ID/g
tissue uptake at 1 h [1, 11]: 0.14 %ID/g
tissue uptake at 1 h [1, 12]: 0.13 %ID/g
tissue uptake at 1 h [1, 13]: 0.35 %ID/g
tissue uptake at 1 h [1, 14]: 0.19 %ID/g
tissue uptake at 1 h [1, 15]: 0.44 %ID/g
tissue uptake at 1 h [1, 16]: 3.32 %ID/g
tissue uptake at 1 h [1, 17]: 8.91 %ID/g
tissue uptake at 1 h [1, 18]: 0.77 %ID/g
tissue uptake at 1 h [1, 19]: 0.55 %ID/g
tissue uptake at 1 h [1, 20]: 0.74 %ID/g
tissue uptake at 1 h [1, 21]: 1.05 %ID/g
tissue uptake at 1 h [1, 22]: 0.06 %ID/g
tissue uptake at 1 h [1, 23]: 0.2 %ID/g
tissue uptake at 1 h [1, 24]: 0.09 %ID/g
tissue uptake at 1 h [1, 25]: 0.26 %ID/g
tissue uptake at 1 h [1, 26]: 0.7 %ID/g
tissue uptake at 1 h [1, 27]: 0.57 %ID/g
tissue uptake at 1 h [1, 28]: 0.06 %ID/g
tissue uptake at 1 h [1, 29]: 0.13 %ID/g
tissue uptake at 1 h [1, 30]: 0.14 %ID/g
tissue uptake at 1 h [1, 31]: 0.29 %ID/g
tissue uptake at 1 h ([1]; whole blood, 1 h, read-out: Biodistribution Blood): 0.38 %ID/g
tissue uptake at 1 h ([1]; whole blood, 1 h blocked (7.5 μg LY2510924 i.p.), read-out: Biodistribution Blood): 1.08 %ID/g
Ratio Tumor: Blood ([2]; 1 h): 31.30
Ratio Tumor: Bone ([2]; 1 h): 37.23
Ratio Tumor: Liver ([2]; 1 h): 15.41
Ratio Tumor: Lung ([2]; 1 h): 15.76
Ratio Tumor: Muscle ([2]; 1 h): 180.39
Ratio Tumor: Spleen ([2]; 1 h): 19.78
Ratio Tumor: Blood [2, 32]: 1.74
Ratio Tumor: Bone [2, 32]: 8.83
Ratio Tumor: Liver [2, 32]: 2.59
Ratio Tumor: Lung [2, 32]: 1.48
Ratio Tumor: Muscle [2, 32]: 8.71
Ratio Tumor: Spleen [2, 32]: 3.10
tissue uptake at 1 h ([3]; PC3 tumor, 1 h, read-out: Biodistribution PC3 (tumor)): 1.83 %ID/g
tissue uptake at 1 h ([3]; PC3 tumor, 1 h blocked (7.5 μg LY2510924 i.p.), read-out: Biodistribution PC3 (tumor)): 0.75 %ID/g
tissue uptake at 2 h ([3]; PC3 tumor, read-out: Biodistribution PC3 (tumor)): 1.41 %ID/g
tissue uptake at 1 h [3, 4]: 0.18 %ID/g
tissue uptake at 1 h [3, 5]: 0.18 %ID/g
tissue uptake at 2 h ([3]; adrenals, read-out: Biodistribution Adrenals): 0.1 %ID/g
tissue uptake at 1 h ([3]; blood, 1 h, read-out: Biodistribution Blood): 0.33 %ID/g
tissue uptake at 1 h ([3]; blood, 1 h blocked (7.5 μg LY2510924 i.p.), read-out: Biodistribution Blood): 0.54 %ID/g
tissue uptake at 2 h ([3]; blood, read-out: Biodistribution Blood): 0.06 %ID/g
tissue uptake at 1 h [3, 6]: 0.12 %ID/g
tissue uptake at 1 h [3, 7]: 0.15 %ID/g
tissue uptake at 2 h ([3]; bone, read-out: Biodistribution Bone): 0.11 %ID/g
tissue uptake at 1 h [3, 8]: 0.01 %ID/g
tissue uptake at 1 h [3, 9]: 0.02 %ID/g
tissue uptake at 2 h ([3]; brain, read-out: Biodistribution Brain): 0.01 %ID/g
tissue uptake at 1 h [3, 10]: 0.2 %ID/g
tissue uptake at 1 h [3, 11]: 0.16 %ID/g
tissue uptake at 2 h ([3]; fat, read-out: Biodistribution Fat): 0.01 %ID/g
tissue uptake at 1 h [3, 12]: 0.14 %ID/g
tissue uptake at 1 h [3, 13]: 0.21 %ID/g
tissue uptake at 2 h ([3]; heart, read-out: Biodistribution Heart): 0.06 %ID/g
tissue uptake at 1 h [3, 14]: 0.18 %ID/g
tissue uptake at 1 h [3, 15]: 0.25 %ID/g
tissue uptake at 2 h ([3]; intestine, read-out: Biodistribution Intestine): 0.14 %ID/g
tissue uptake at 1 h [3, 16]: 3.6 %ID/g
tissue uptake at 1 h [3, 17]: 3.75 %ID/g
tissue uptake at 2 h ([3]; kidney, read-out: Biodistribution Kidney): 4.67 %ID/g
tissue uptake at 1 h [3, 18]: 0.55 %ID/g
tissue uptake at 1 h [3, 19]: 0.5 %ID/g
tissue uptake at 2 h ([3]; liver, read-out: Biodistribution Liver): 0.73 %ID/g
tissue uptake at 1 h [3, 20]: 0.5 %ID/g
tissue uptake at 1 h [3, 21]: 0.6 %ID/g
tissue uptake at 2 h ([3]; lung, read-out: Biodistribution Lung): 0.33 %ID/g
tissue uptake at 1 h [3, 22]: 0.08 %ID/g
tissue uptake at 1 h [3, 23]: 0.11 %ID/g
tissue uptake at 2 h ([3]; muscle, read-out: Biodistribution Muscle): 0.03 %ID/g
tissue uptake at 1 h [3, 24]: 0.1 %ID/g
tissue uptake at 1 h [3, 25]: 0.12 %ID/g
tissue uptake at 2 h ([3]; pancreas, read-out: Biodistribution Pancreas): 0.04 %ID/g
tissue uptake at 1 h [3, 26]: 0.28 %ID/g
tissue uptake at 1 h [3, 27]: 0.37 %ID/g
tissue uptake at 2 h ([3]; spleen, read-out: Biodistribution Spleen): 0.25 %ID/g
tissue uptake at 1 h [3, 28]: 0.05 %ID/g
tissue uptake at 1 h [3, 29]: 0.06 %ID/g
tissue uptake at 2 h ([3]; stomach, read-out: Biodistribution Stomach): 0.06 %ID/g
tissue uptake at 1 h [3, 30]: 0.18 %ID/g
tissue uptake at 1 h [3, 31]: 0.35 %ID/g
tissue uptake at 2 h ([3]; testes, read-out: Biodistribution Testes): 0.06 %ID/g
